According to EP1247528A1, “Pharmaceutical or cosmetic compositions containing extracts from Arachis hypogaea L” (Cognis France S.A., priority 2001, dated 2002):

What was measured:
[1] = DPPH-Test (chemical test, activity against free radicals)
Text: (§1) Die optische Dichte des Extraktes lag bei 513 nm. Als erstes Testsubstrat wurde Diphenylpicrylhydrazyl (DPPH) gewählt, ein purpurrot gefärbtes stabiles Radikal, welches durch Inkontaktbringen mit Radikalfängern in sein ungefärbtes Leucoderivat übergeht. Der Farbwechsel kann photometrisch verfolgt werden. Die Meßergebnisse sind in Tabelle 2 zusammengefaßt ("DPPH-Test").. In einem weiteren Test wurde Xanthin Oxidase als Testsystem gewählt. Das Enzym bewirkt bei oxidativem Stress die Umwandlung von Purinbasen, wie z.B. Adenin oder Guanin in […], wobei die intermediär gebildeten Sauerstoffradikale durch Reaktion mit Luminol über die Lumineszenz nachgewiesen und quantitativ bestimmt werden können. In Gegenwart von Substanzen mit radikalfangenden Eigenschaften vermindert sich die Lumineszenzausbeute. Der NBT-Wert bestimmt den Gehalt von […], welches aus NBT durch das Sauerstoffradikal gebildet wird. Die optische Dichte wurde bei 540 nm bestimmt.

Xanthin Oxidase [2] = assay: Luminol-Test (xanthine oxidase system, luminescence); format: biochemical
Text: as §1
(§2) Diese Ergebnisse sind in Tabelle 3 zusammengefaßt; wieder ist die Inhibierung in %-absolut angegeben ("Luminol-Test"). Tab.

Xanthin Oxidase [3] = assay: Luminol + Microperoxydase test (xanthine oxidase system); format: biochemical
Text: as §1, §2

Xanthin Oxidase [4] = assay: NBT test (xanthine oxidase system, optical density at 540 nm); format: biochemical
Text: as §1, §2

[5] = test system: menschlichen Keratinozyten; assay: Cell protection against UVB on human keratinocytes cultured in vitro; format: cell-based; conditions: UVB 50 mJ/cm^2; 0,03 % test substance
Description: Methode: Der Effekt von UVB-Strahlung wurde an Keratinocyten in vitro untersucht indem die Freisetzung des Cytoplasaenzyms LDH (Lactat Dehydrogenase) bestimmt wurde. Dieses Enzym dient als Marker für eine Zellschädigung.
Zur Durchführung der Tests wurde ein definiertes Medium, das fötales Kälberserum enthält, mit den Keratinozyten beimpft und der Pflanzenextrakt (mit Saline-Lösung verdünnt) 72 Stunden nach dem Beimpfen zugegeben. […]
Nach weiterer 1 tägiger Inkubation bei 37 °C und bei 5 % CO2 wurde der LDH-Gehalt im Überstand bestimmt. Der Gehalt von LDH- (Lactatdehydrogenase) wurde mittels einer Enzymreaktion bestimmt (verwendetes Kit zur Untersuchung des LDH Gehaltes von der Firma Roche). Die Anzahl adhärenter Keratinozyten wird (nach Trypsinbehandlung) mit einem Partikelzählgerät bestimmt. Tab.

[6] = Antioxidative capacity: inhibition of lipid peroxidation in liposomes (AOP50); format: biochemical; conditions: concentration at which lipid peroxidation is reduced by 50 %; Fe(II) ascorbate, 37 °C, 45 min, MDA-thiobarbituric acid at 532 nm
Description: Als Maß für die antioxidative Kapazität der Erdnusshäutchen Extrakte wurde ihre Fähigkeit bestimmt, die Lipidperoxidation in Liposomen zu verhindern. Dazu wurde eine 0,2 Gew.-%ige Liposomen Suspension aus Sojalecithin in Phosphatpuffer hergestellt. Die Lipidperoxidation wurde durch Zugabe eines Eisen(II)ascorbat Komplexes (10mM Fe(II)SO4, 50 mM Ascorbat) initiiert. Die Inkubation wurde bei 37 °C für 45 min. durchgeführt. Als Endprodukt der Lipidperoxidation entsteht Malondialdeyd, welches über eine Farbreaktion mit Thiobarbitursäure quantifiziert wird (photometrische Bestimming des Malondialdehyd-Thiobarbitursäure Komplexes bei 532 nm). Zur Bestimmung der antioxidativen Kapazität der Erdnusshäutchen Extrakte wurden diese in unterschiedlichen Konzentration vor der Zugabe des Eisen(II)ascorbat Komplexes zum Inkubationsansatz gegeben. Ermittelt wurde die Konzentration an Pflanzenextrakt (in µg/ml), bei der die Lipidperoxidation um 50 % verringert ist (= AOP50) im Vergleich zur Bestimmung ohne Zusatz an Pflanzenextrakt. D.h. je geringer die angegebene Konzentration AOP50, desto höher ist die antioxidative Kapazität des untersuchten Erdnussextraktes. Als Referenzsubstanz diente das Antioxidans n-Propylgallat. Tab.

[7] = Electron spin resonance spectroscopy (ESR), radical scavenging with spin trap DMPO; conditions: 5 mM solution (comparison)
Text: Die Methode der Elektronenspinresonanz Spektroskopie beruht auf dem Prinzip der Generierung kurzlebiger Radikale über chemische Radikalgeneratoren, der Stabilisierung und Akkumulierung der Radikale mittels Radikalfänger (Spin-Trapper-Substanzen) und der Detektion der für die einzelnen Radikale typischen ESR-Spektren. Die radikalfangenden Eigenschaften der zu untersuchenden Substanzen werden durch die Abnahme der Signalintensitäten der getrappten Radikale charakterisiert. Im vorliegenden Fall wurde als Radikal Fänger (Spin Trapper) DMPO (5,5-Dimethyl-1-pyrrolin-N-oxid) verwendet. Die Signalintensität des mit Hilfe des DMPO gebildeten stabilen DMPO-Hydroxyadduktes wurde 100 % gesetzt. Die Abnahme dieses Signals in Abhängigkeit von der Konzentration des eingesetzten Pflanzenextraktes, ist ein Nachweis für die Radikal fangenden Eigenschaften der Extrakte.
Der Extrakt aus Beispiel 1 wurde mittels der ESR Spektroskopie untersucht. Bereits in einer Konzentration von 0,01 Gew.-% führte dieser Extrakt zu einer Abnahme des DMPO-Hydroxyaddukt Signals um 79 % auf ein Restsignal von 21 %. Bei einer Konzentration von 0,05 % zeigte sich eine Abnahme des Signals um 89 % und bei einer Konzentration von 0,5 % fand eine völlige Löschung des Signals statt. Als Vergleich diente eine 5 mM α-Tocopherol Lösung, die eine Abnahme des Signals um 65 % bewirkte.

humanen Fibroblasten = assay: Cell protection against UVA on human fibroblasts cultured in vitro; format: cell-based; conditions: UVA 20 J/cm^2; 0,0003 % test substance
Description: Methode: Zur Durchführung dieser Tests wurde ein definiertes Kulturmedium mit den Fibroblasten mit fötalem Kälberserum beimpft und der Pflanzenextrakt (in dem definierten Medium mit 10 % Fötalem Kälberserum) 72 Stunden nach dem Beimpfen zugegeben.
Nach 48 stündiger Inkubation bei 37 °C und einem CO2-Gehalt von 5 % wurde das Kulturmedium durch Saline-Lösung (physiologische NaCI-Lösung) ersetzt und die Fibroblasten wurden mit einer UVA-Dosis bestrahlt (365 nm, 20 J/cm^2; Röhren: MAZDA FLUOR TFWN40).
Nach der Beendigung der Bestrahlung wurde der MDA-Spiegel (Malonaldialdehyd-Spiegel) in der überstehenden Natriumchlorid-Lösung quantitativ durch Reaktion mit Thiobarbitursäure bestimmt.
Außerdem wurde der Gehalt an Proteinen nach der Methode von Bradford bestimmt und der Gehalt an GSH untersucht wobei es sich um reduziertes Glutathion handelt. Der Gehalt an GSH wurde bstimmt nach der Methode von Hissin (Hissin PJ, Hilf R., A fluorometric method for determination of oxydised and reduced glutathione tissues, Anal. Biochem. 74, 214-226, 1976). Tab.

| Compound | EC50 in % DPPH-Test [1] | EC50 in % Luminol (Xanthin Oxidase [2]) | EC50 in % Luminol + Microperoxydase (Xanthin Oxidase [3]) | EC50 in % NBT (Xanthin Oxidase [4]) | other results |
| --- | --- | --- | --- | --- | --- |
| O=C1O[C@H]([C@@H](O)CO)C(O)=C1O [Ascorbinsäure] | 0,0013% | 0,0006% | 0,0058% | 0,5909% | – |
| CC(=O)Oc1ccccc1C(=O)O [Aspirin] | – | – | – | – | Anzahl Keratinocyten [5]: 52 % im Vergleich zur Kontrolle; Gehalt an LDH [5]: 46 % im Vergleich zur Kontrolle; Gehalt an PGE2 [5]: 4 % im Vergleich zur Kontrolle |
| CCCOC(=O)c1cc(O)c(O)c(O)c1 [n-Propylgallat] | – | – | – | – | AOP50 [6]: 2,9 µg/ml |
| Cc1c(C)c2c(c(C)c1O)CC[C@@](C)(CCC[C@H](C)CCC[C@H](C)CCCC(C)C)O2 [α-Tocopherol] | – | – | – | – | Abnahme des Signals [7]: 65% |
| Tocopherol | 0,0067% | Kein Effekt bis zu 1% | Kein Effekt bis zu 1% | Kein Effekt bis zu 1% | Freigesetzter MDA (humanen Fibroblasten): 19 % im Vergleich zur Kontrolle; GSH/Protein (humanen Fibroblasten): 77 % im Vergleich zur Kontrolle; Zellproteine (humanen Fibroblasten): 95 % im Vergleich zur Kontrolle |
